Measured values from patent US20150353495A1 (PORTOLA PHARMACEUTICALS, INC., priority 2010, published 2015).
pIC50: −log10 of the molar value.

Assays:
Format in all cases: biochemical
[1] = target: T1, JAK1 (Homo sapiens, UniProt P23458); assay: Z'-LYTE kinase assay JAK1
T1 construct: 5 μl of catalytic domain recombinant Kinase enzyme+Tyr peptide substrate (Invitrogen, CA); purchased Invitrogen
Method in brief: (§1)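 Catalytic-domain recombinant kinase was incubated with Tyr6 FRET peptide, ATP and compound (1% DMSO final) for 1 h at room temperature. Protease development followed for 1 h, cleaving only non-phosphorylated peptide. Inhibition of phosphorylation was read as coumarin/fluorescein FRET fluorescence.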

[2] = target: T2, JAK2 (Homo sapiens, UniProt O60674); assay: Z'-LYTE kinase assay JAK2
T2 construct: 5 μl of catalytic domain recombinant Kinase enzyme+Tyr peptide substrate (Invitrogen, CA); purchased Invitrogen
Method in brief: as §1

[3] = target: T3, JAK3 (Homo sapiens, UniProt P52333); assay: Z'-LYTE kinase assay JAK3
T3 construct: 5 μl of catalytic domain recombinant Kinase enzyme+Tyr peptide substrate (Invitrogen, CA); purchased Invitrogen
Method in brief: as §1

T1 sequence (P23458 875-1153 limits assumed): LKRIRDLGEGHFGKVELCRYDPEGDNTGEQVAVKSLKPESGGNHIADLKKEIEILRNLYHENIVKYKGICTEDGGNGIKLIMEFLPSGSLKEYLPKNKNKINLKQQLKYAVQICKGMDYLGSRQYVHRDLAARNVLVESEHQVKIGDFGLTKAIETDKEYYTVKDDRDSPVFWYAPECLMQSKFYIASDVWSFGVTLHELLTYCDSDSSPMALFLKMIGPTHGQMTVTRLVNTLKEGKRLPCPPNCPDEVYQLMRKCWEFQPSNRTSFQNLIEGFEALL
T2 sequence (O60674 849-1124 limits assumed): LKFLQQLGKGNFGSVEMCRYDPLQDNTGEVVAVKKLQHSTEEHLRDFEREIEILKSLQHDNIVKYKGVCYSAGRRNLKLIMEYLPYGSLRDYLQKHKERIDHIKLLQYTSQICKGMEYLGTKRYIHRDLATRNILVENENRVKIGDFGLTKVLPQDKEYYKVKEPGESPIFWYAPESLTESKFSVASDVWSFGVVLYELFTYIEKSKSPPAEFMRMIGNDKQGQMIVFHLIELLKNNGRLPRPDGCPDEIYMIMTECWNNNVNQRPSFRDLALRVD
T3 sequence (P52333 822-1111 limits assumed): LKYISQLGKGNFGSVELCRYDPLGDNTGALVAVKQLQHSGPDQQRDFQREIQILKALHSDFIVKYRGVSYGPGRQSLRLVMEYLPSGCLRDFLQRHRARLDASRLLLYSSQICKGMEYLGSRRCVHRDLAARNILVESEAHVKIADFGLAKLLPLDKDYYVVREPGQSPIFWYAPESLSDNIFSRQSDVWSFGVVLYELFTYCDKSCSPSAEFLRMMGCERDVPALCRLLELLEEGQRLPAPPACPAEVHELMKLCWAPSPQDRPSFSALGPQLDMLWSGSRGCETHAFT

Row | SMILES | pIC50 [1] | pIC50 [2] | pIC50 [3]
1 | CC(C)[C@H](C)Nc1cc(Nc2ccc(C3CCOCC3)cc2)ncc1C(N)=O [Example 186, (S)-4-(3-methylbutan-2-ylamino)-6-(4-(tetrahydro-2H-pyran-4-yl)phenylamino)nicotinamide] | 6.00 to 7.00 | 6.00 to 7.00 | 7.00 to 8.00
2 | COC(=O)N1CCC[C@H](CNc2cc(Nc3ccc(OC)cc3)ncc2C(N)=O)C1 [Example 56, (R)-methyl 3-((5-carbamoyl-2-(4-methoxyphenylamino)pyridin-4-ylamino)methyl)piperidine-1-carboxylate] | < 6.00 | < 6.00 | 6.00 to 7.00
3 | N#CCN1CCC(c2ccc(Nc3cc(NCc4cccc(F)c4F)c(C(N)=O)cn3)cc2)CC1 [Example 215, 6-(4-(1-(cyanomethyl)piperidin-4-yl)phenylamino)-4-(2,3-difluorobenzylamino)nicotinamide] | < 6.00 | 6.00 to 7.00 | 7.00 to 8.00
4 | CCC(=O)N1CCC(c2ccc(Nc3cc(NC4CCCC4)c(C(N)=O)cn3)cc2)CC1 [Example 147, 4-(cyclopentylamino)-6-(4-(1-propionylpiperidin-4-yl)phenylamino)nicotinamide] | 6.00 to 7.00 | 6.00 to 7.00 | 7.00 to 8.00
5 | COCC(=O)N1CC(c2ccc(Nc3cc(NCc4cccc5ccsc45)c(C(N)=O)cn3)cc2)C1 [Example 495, 4-(benzo[b]thiophen-7-ylmethylamino)-6-(4-(1-(2-methoxyacetyl)azetidin-3-yl)phenylamino)nicotinamide] | 6.00 to 7.00 | 7.00 to 8.00 | 8.00 to 9.00
6 | N#CCc1ccc(Nc2cc(NCc3ccccc3)c(C(N)=O)cn2)cc1 [Example 390] | 6.00 to 7.00 | 6.00 to 7.00 | 7.00 to 8.00
7 | CCC(=O)N1CCC(c2ccc(Nc3cc(N[C@H](C)C4CC4)c(C(N)=O)cn3)cc2)CC1 [Example 202, (R)-4-(1-cyclopropylethylamino)-6-(4-(1-propionylpiperidin-4-yl)phenylamino)nicotinamide] | 6.00 to 7.00 | 6.00 to 7.00 | 7.00 to 8.00
8 | COC(=O)N(C)c1ccc(Nc2cc(NCc3cccc4[nH]ccc34)c(C(N)=O)cn2)cc1 [Example 474, methyl 4-(4-((1H-indol-4-yl)methylamino)-5-carbamoylpyridin-2-ylamino)phenyl(methyl)carbamate] | 7.00 to 8.00 | 7.00 to 8.00 | 8.00 to 9.00
9 | COC(=O)N(C)c1ccc(Nc2cc(NCc3cccc(F)n3)c(C(N)=O)cn2)cc1 [Example 487] | 6.00 to 7.00 | 6.00 to 7.00 | 7.00 to 8.00
10 | CS(=O)(=O)Cc1ccc(Nc2cc(NCc3cccc(-c4ccncc4)c3)c(C(N)=O)cn2)cc1 [Example 418, 6-(4-(methylsulfonylmethyl)phenylamino)-4-(3-(pyridine-4-yl)benzylamino)nicotinamide] | 6.00 to 7.00 | 6.00 to 7.00 | 8.00 to 9.00
11 | CCC(=O)N1CCC(c2ccc(Nc3cc(N[C@H](C)C(C)C)c(C(N)=O)cn3)cc2)CC1 [Example 189, (R)-4-(3-methylbutan-2-ylamino)-6-(4-(1-propionylpiperidin-4-yl)phenylamino)nicotinamide] | 7.00 to 8.00 | 7.00 to 8.00 | 8.00 to 9.00
12 | CC(=O)N1CCN(c2ccc(Nc3cc(N[C@H]4CC[C@@H](O)CC4)c(C(N)=O)cn3)cc2)CC1 [Example 123, 6-(4-(4-acetylpiperazin-1-yl)phenylamino)-4-((cis)-4-hydroxycyclohexylamino)nicotinamide] | 6.00 to 7.00 | 6.00 to 7.00 | 7.00 to 8.00
13 | CC(=O)N1CC(c2ccc(Nc3cc(NCc4ccccc4)c(C(N)=O)cn3)cc2)C1 [Example 324, 6-(4-(1-acetylazetidin-3-yl)phenylamino)-4-(benzylamino)nicotinamide] | 6.00 to 7.00 | 6.00 to 7.00 | 8.00 to 9.00
14 | COc1cc(Nc2cc(NC[C@H]3CCCN(C(C)=O)C3)c(C(N)=O)cn2)ccc1C(=O)N(C)C [Example 441, (R)-4-((1-acetylpiperidin-3-yl)methylamino)-6-(4-(dimethylcarbamoyl)-3-methoxyphenylamino)nicotinamide] | < 6.00 | 6.00 to 7.00 | 7.00 to 8.00

Continued, values first:

Row | pIC50 [1] | pIC50 [2] | pIC50 [3] | SMILES
15 | < 6.00 | 6.00 to 7.00 | 7.00 to 8.00 | COC[C@@H](Nc1cc(Nc2ccc(N3CCOCC3)cc2)ncc1C(N)=O)c1ccccc1 [Example 262, (S)-4-(2-methoxy-1-phenylethylamino)-6-(4-morpholinophenylamino)nicotinamide]
16 | < 6.00 | < 6.00 | 6.00 to 7.00 | COc1ccc(Nc2cc(NCC3CCCC3)c(C(N)=O)cn2)cc1 [Example 32, 4-(cyclopentylmethylamino)-6-(4-methoxyphenylamino)nicotinamide]
17 | 6.00 to 7.00 | 6.00 to 7.00 | 7.00 to 8.00 | CC(=O)N1CCC[C@H](CNc2cc(Nc3ccc(NS(=O)(=O)N(C)C)cc3)ncc2C(N)=O)C1 [Example 269, (R)-4-((1-acetylpiperidin-3-yl)methylamino)-6-(4-(N,N-dimethylsulfamoylamino)phenylamino)nicotinamide]
18 | < 6.00 | 6.00 to 7.00 | 7.00 to 8.00 | NC(=O)c1cnc(Nc2ccc(C3CCOCC3)cc2)cc1NCc1ccccn1 [Example 174, 4-(pyridin-2-ylmethylamino)-6-(4-(tetrahydro-2H-pyran-4-yl)phenylamino)nicotinamide]
19 | 6.00 to 7.00 | 6.00 to 7.00 | 7.00 to 8.00 | NC(=O)c1cnc(Nc2ccc(C(=O)N3CCC3)cc2)cc1NCC1CCCC1 [Example 48, 6-(4-(azetidine-1-carbonyl)phenylamino)-4-(cyclopentylmethylamino)nicotinamide]
20 | < 6.00 | 7.00 to 8.00 | 8.00 to 9.00 | CCC(=O)N1CCC(c2ccc(Nc3cc(NCc4cccc(F)c4)c(C(N)=O)cn3)cc2)CC1 [Example 145, 4-(3-fluorobenzylamino)-6-(4-(1-propionylpiperidin-4-yl)phenylamino)nicotinamide]
21 | < 6.00 | 6.00 to 7.00 | 6.00 to 7.00 | NC(=O)c1cnc(Nc2ccc(C3CCOCC3)cc2)cc1NCC1CCOCC1 [Example 140, 4-((tetrahydro-2H-pyran-4-yl)methylamino)-6-(4-(tetrahydro-2H-pyran-4-yl)phenylamino)nicotinamide]
22 | 6.00 to 7.00 | 6.00 to 7.00 | 8.00 to 9.00 | N#CCc1cccc(Nc2cc(NCc3ccccc3)c(C(N)=O)cn2)c1 [Example 387]
23 | < 6.00 | 6.00 to 7.00 | 7.00 to 8.00 | CC(=O)N(C)c1ccc(Nc2cc(NCc3cccc4cc[nH]c34)c(C(N)=O)cn2)cc1 [Example 470, 4-((1H-indol-7-yl)methylamino)-6-(4-(N-methylacetamido)phenylamino)nicotinamide]
24 | 6.00 to 7.00 | 6.00 to 7.00 | 7.00 to 8.00 | NC(=O)c1cnc(Nc2ccc(C3CCOCC3)cc2)cc1NCc1cccnc1 [Example 185, 4-(pyridin-3-ylmethylamino)-6-(4-(tetrahydro-2H-pyran-4-yl)phenylamino)nicotinamide]
25 | < 6.00 | 6.00 to 7.00 | 7.00 to 8.00 | COc1ccc(Nc2cc(NC[C@H]3CCCN(S(C)(=O)=O)C3)c(C(N)=O)cn2)cc1 [Example 57, (R)-6-(4-methoxyphenylamino)-4-((1-(methylsulfonyl)piperidin-3-yl)methylamino)nicotinamide]
26 | < 6.00 | < 6.00 | 6.00 to 7.00 | COC(=O)N1CCC[C@@H](CNc2cc(Nc3ccc(OC)cc3)ncc2C(N)=O)C1 [Example 52, (S)-methyl 3-((5-carbamoyl-2-(4-methoxyphenylamino)pyridin-4-ylamino)methyl)piperidine-1-carboxylate]
27 | 8.00 to 9.00 | 7.00 to 8.00 | > 9.00 | CC(=O)Nc1ccc(Nc2cc(NCc3cccc4[nH]ccc34)c(C(N)=O)cn2)cc1 [Example 472, 4-((1H-indol-4-yl)methylamino)-6-(4-acetamidophenylamino)nicotinamide]
28 | < 6.00 | < 6.00 | 6.00 to 7.00 | COc1ccc(Nc2cc(NCc3ncccn3)c(C(N)=O)cn2)cc1 [Example 300, 6-(4-methoxyphenylamino)-4-(pyrimidin-2-ylmethylamino)nicotinamide]
29 | < 6.00 | < 6.00 | 6.00 to 7.00 | CC(=O)N1CCC[C@H](CNc2cc(Nc3ccc(F)c(C(=O)N4CCC4)c3)ncc2C(N)=O)C1 [Example 444, (R)-4-((1-acetylpiperidin-3-yl)methylamino)-6-(3-(azetidine-1-carbonyl)-4-fluorophenylamino)nicotinamide]
30 | < 6.00 | 6.00 to 7.00 | 7.00 to 8.00 | NC(=O)c1cnc(Nc2cccc(Cl)c2)cc1NCc1cncc(F)c1 [Example 307, 6-(3-chlorophenylamino)-4-((5-fluoropyridin-3-yl)methylamino)nicotinamide]
31 | < 6.00 | < 6.00 | 7.00 to 8.00 | NC(=O)c1cnc(Nc2ccc3ncccc3c2)cc1NCc1ccccc1 [Example 86, 4-(benzylamino)-6-(quinolin-6-ylamino)nicotinamide]
32 | < 6.00 | 6.00 to 7.00 | 7.00 to 8.00 | COc1ccc(Nc2cc(NC[C@H]3CCCN(C(C)=O)C3)c(C(N)=O)cn2)cc1 [Example 54]
33 | 6.00 to 7.00 | 6.00 to 7.00 | 8.00 to 9.00 | CN(C)C(=O)c1ccc(Nc2cc(NCc3cccc4c3ccn4C)c(C(N)=O)cn2)cc1 [Example 304, 6-(4-(dimethylcarbamoyl)phenylamino)-4-((1-methyl-1H-indol-4-yl)methylamino)nicotinamide]
34 | < 6.00 | < 6.00 | 6.00 to 7.00 | CC(=O)N1CCC[C@H](CNc2cc(Nc3ccc(C(=O)N(C)C)c(F)c3)ncc2C(N)=O)C1 [Example 275, (R)-4-((1-acetylpiperidin-3-yl)methylamino)-6-(4-(dimethylcarbamoyl)-3-fluorophenylamino)nicotinamide]
